In ChEMBL document CHEMBL1201862, “PubChem BioAssay data set” (2004):
Active and inactive are the calls of the source.

The molecules below were run against Cytochrome P450 3A4 (Homo sapiens, UniProt P08684). Conditions: Potency.
Cytochrome P450 3A4, sequence (P08684 whole entry): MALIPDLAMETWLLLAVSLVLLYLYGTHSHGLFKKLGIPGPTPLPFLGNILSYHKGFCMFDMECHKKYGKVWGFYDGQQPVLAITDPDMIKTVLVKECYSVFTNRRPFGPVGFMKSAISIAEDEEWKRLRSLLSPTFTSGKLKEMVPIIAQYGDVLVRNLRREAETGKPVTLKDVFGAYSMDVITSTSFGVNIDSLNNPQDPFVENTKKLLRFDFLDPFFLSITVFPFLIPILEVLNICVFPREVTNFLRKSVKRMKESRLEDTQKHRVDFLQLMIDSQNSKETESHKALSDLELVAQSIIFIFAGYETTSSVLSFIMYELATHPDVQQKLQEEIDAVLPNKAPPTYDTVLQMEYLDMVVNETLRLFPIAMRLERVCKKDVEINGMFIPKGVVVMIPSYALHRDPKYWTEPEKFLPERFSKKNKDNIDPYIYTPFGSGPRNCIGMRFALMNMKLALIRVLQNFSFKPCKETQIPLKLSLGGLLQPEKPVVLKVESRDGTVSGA

| Compound | AC50 |
| --- | --- |
| C=CCSSCC=C | 25.1 µM (inconclusive) |
| COc1ccc(-c2cc(=O)c3c(O)cc(O)c(-c4cc(-c5cc(=O)c6c(O)cc(O)cc6o5)ccc4OC)c3o2)cc1 [ISOGINKGETIN] | 3.98 µM (inconclusive) |

The molecules below were run against Paired box protein Pax-8 (Homo sapiens, UniProt Q06710) (assay: inhibitors of PAX8-driven TPO luciferase reporter, dose response, RMG-I cells, cherry-pick (AID 687027)). Conditions: not given.
Type: functional, cell-based

Paired box protein Pax-8, sequence (Q06710 whole entry): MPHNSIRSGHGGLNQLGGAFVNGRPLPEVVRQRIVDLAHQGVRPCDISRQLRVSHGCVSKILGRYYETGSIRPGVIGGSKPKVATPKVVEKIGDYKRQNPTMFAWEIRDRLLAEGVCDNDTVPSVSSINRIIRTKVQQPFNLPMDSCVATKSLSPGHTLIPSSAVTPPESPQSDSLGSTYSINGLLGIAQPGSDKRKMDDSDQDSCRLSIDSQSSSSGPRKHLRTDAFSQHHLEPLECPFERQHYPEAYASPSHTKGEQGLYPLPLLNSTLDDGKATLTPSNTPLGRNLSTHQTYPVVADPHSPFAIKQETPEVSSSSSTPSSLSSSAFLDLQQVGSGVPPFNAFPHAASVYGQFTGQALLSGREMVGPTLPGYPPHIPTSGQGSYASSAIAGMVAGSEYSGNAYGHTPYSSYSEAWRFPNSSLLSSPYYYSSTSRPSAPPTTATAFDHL

| Compound | AC50 |
| --- | --- |
| CSCCC(c1nnnn1Cc1ccccc1)N1CCC(n2c(O)nc3ccccc32)CC1 (stereo not given) | 0.538 µM (active) |

These molecules were tested against T1, Short transient receptor potential channel 4 (Mus musculus, UniProt Q9QUQ5) (assay: mouse TRPC4 channel activators, dose response, cell-based, HEK293 TRPC4/mu-opioid, Fluo-4 calcium (AID 434937)). Conditions: not given.
T1 sequence (Q9QUQ5 whole entry): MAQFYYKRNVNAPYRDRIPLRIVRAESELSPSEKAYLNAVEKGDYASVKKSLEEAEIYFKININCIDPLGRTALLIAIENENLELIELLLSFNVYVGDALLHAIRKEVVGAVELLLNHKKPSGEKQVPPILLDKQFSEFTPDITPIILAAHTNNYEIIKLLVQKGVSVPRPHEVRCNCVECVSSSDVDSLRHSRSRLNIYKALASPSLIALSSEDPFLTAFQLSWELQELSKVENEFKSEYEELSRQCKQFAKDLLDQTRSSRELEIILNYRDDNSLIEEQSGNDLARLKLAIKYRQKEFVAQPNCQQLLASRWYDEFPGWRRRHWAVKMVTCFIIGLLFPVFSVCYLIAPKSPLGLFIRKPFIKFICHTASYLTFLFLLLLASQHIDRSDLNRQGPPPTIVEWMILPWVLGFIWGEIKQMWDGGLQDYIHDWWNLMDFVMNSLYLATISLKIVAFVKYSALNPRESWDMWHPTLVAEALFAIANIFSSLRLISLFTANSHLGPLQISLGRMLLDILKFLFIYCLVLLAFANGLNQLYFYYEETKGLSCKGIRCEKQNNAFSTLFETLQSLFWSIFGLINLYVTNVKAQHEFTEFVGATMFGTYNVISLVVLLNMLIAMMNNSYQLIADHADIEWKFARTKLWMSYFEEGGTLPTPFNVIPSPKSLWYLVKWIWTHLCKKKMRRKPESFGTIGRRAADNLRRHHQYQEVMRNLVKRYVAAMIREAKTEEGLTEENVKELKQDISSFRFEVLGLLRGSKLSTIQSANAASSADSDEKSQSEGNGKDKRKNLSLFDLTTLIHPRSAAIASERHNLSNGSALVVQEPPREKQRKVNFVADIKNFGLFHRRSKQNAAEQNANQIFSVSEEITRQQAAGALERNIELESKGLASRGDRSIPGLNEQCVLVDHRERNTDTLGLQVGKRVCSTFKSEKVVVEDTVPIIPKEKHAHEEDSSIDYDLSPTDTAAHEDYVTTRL
Type: functional

| EC50 | Compound |
| --- | --- |
| 4.73 µM (active) | Cc1ccc(CNC(=O)C2CCCN(Cc3cnn(-c4ccccc4)c3-n3cccc3)C2)cc1 (stereo not given) |
| 5.96 µM (active) | O=C(COc1ccc(Br)cc1CNC1CCCC1)Nc1ccccc1 |
| 0.473 µM (active) | COc1ccc(C(CNC(=O)c2ccccc2SC)N(C)C)cc1 (stereo not given) |

Continued, molecule first:

| Compound | EC50 |
| --- | --- |
| CCCCN(CC)CCNC(=O)c1cc2cc3ccc(Cl)cc3nc2o1 | 0.596 µM (active) |
| CN(C)C(CNc1ncnc2sc3c(c12)CCCC3)c1ccco1 (stereo not given) | 3.35 µM (active) |
| CNCCc1n[nH]c(N)n1 | 0.0667 µM (active) |
| COc1ccc(C(CNC(=O)Cc2ccc(Cl)c(Cl)c2)N(C)C)cc1 (stereo not given) | 0.299 µM (active) |

These molecules were tested against T2, Ubiquitin-conjugating enzyme E2 N (Homo sapiens, UniProt P61088). Conditions: not given.
T2 sequence (P61088 whole entry): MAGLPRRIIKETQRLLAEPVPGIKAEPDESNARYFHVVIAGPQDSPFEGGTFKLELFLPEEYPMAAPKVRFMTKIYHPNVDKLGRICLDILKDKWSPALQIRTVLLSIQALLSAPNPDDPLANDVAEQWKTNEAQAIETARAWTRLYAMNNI
Type: functional

| IC50 | Compound |
| --- | --- |
| > 20 µM (inactive) | CSCCC(NC(=O)c1ccc(Cl)cc1Cl)C(=O)NNC(=O)c1csc(N2CCOCC2)n1 (stereo not given) |
| > 20 µM (inactive) | C=CCn1c(=O)c(C(=O)Nc2ccccc2S(N)(=O)=O)c(O)c2ccccc21 |
| > 20 µM (inactive) | Nc1ccc2c(c1)C(=O)Cc1ccccc1S2 |
| > 20 µM (inactive) | NC(=O)c1c(NC(=O)C(=O)NCCCN2CCOCC2)sc2c1CCCC2 |

The molecules below were run against T3, Calpain-2 catalytic subunit (Sus scrofa, UniProt P43367) (assay: pig calpain II inhibitor potency, dose response, biochemical, fluorogenic peptide substrate (AID 1420)). Conditions: not given.
T3 sequence (P43367 whole entry): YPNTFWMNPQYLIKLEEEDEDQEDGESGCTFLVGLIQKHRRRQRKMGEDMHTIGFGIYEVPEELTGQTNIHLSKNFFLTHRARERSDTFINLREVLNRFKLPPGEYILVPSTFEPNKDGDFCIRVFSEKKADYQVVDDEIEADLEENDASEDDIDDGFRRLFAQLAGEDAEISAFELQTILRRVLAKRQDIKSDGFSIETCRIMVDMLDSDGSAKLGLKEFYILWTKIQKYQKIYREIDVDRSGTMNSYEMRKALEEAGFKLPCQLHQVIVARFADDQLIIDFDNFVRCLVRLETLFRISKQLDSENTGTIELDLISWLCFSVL
Type: functional

| IC50 | Compound |
| --- | --- |
| 2.81 µM (not active) | COc1cccc(C2=CC(c3ccc(OC)c(OC)c3)NC(S)=N2)c1 (stereo not given) |
| > 50 µM (not active) | COc1ccc(OC)c(NC(=O)CSc2nc3ccccc3c3nc4ccccc4n23)c1 |
| 2.86 µM (not active) | Fc1cccc(Cn2cc(C(=S)N3CCCCC3)c3ccccc32)c1 |
| 7.91 µM (not active) | COc1ccc(S(=O)(=O)N2CCC(NC(=O)OCc3c(Cl)cccc3Cl)CC2)cc1 |
| > 50 µM (not active) | CCCN(CCC)C(=O)CC(c1ccccc1)c1ccc(C)cc1O (stereo not given) |
| > 50 µM (not active) | O=C(CSc1ccccn1)N/N=C/c1c[nH]c2ccccc12 |
